According to publication PMC7539557 (ACS infectious diseases, 2020):
Several values for one entry are separate records, joined by “and”; a condition that tells them apart may be missing. Identical values can stand only once. Entries after “also recorded” stand apart in the source; their conditions may differ. Like-named read-outs stand apart in the source and are kept apart here.

How the values were obtained:
[1] = test system: BHK-R cells
[2] = test system: MHV-A59; type: cell-based, Murine hepatitis virus; conditions: for IC50: DFMO pretreatment 4 days, CPX, DEF, GC7 24h
[3] = test system: MERS-CoV; conditions: in vitro, dose of 500 μM; cited from earlier work
[4] = test system: MHV; experiment: Direct incubation of MHV with compound, then titering; parameters: species or system Murine hepatitis virus; conditions: 10 μM for 24h, then titered
[5] = test system: HeLa-R cells
[6] = test system: SARS-CoV-2 pseudoparticles; type: cell-based; conditions: DFMO-treated Vero-E6 cells
[7] = test system: SARS-CoV-2; type: cell-based; conditions: 5 mM DFMO, Vero-E6, MOI 0.1, 24 hpi
[8] = test system: MHV; experiment: MHV attachment assays; type: cell-based, Murine hepatitis virus
[9] = test system: cellular polyamines; experiment: Thin-layer chromatography of cell-associated polyamines; type: cell-based
[10] = test system: MHV-A59; experiment: Plaque size measurement with DFMO applied at time of infection; type: cell-based, Murine hepatitis virus
[11] = test system: MHV-A59; type: cell-based, Murine hepatitis virus
[12] = test system: HCoV-NL63; experiment: HCoV-NL63 qPCR-based attachment assay on Vero-E6 cells; type: cell-based; conditions: DFMO-treated Vero-E6 cells

**Q.** What does the source list for `Cc1cc(C2CCCCC2)n(O)c(=O)c1` [CPX, ciclopirox]?
**A.** cytotoxicity [1]: cytotoxicity was minimal; MHV replication [2]: significantly reduced MHV replication in a dose-dependent manner

**Q.** For `Cc1c(O)c(=O)ccn1C` [DEF, deferiprone], which “cytotoxicity” value [1] is on record?
**A.** Its value is “cytotoxicity was minimal”.

**Q.** What about the MHV replication [2] of the same compound?
**A.** The MHV replication was “significantly reduced MHV replication in a dose-dependent manner”.

**Q.** Which “sensitivity of MERS-CoV” value [3] does the source give for `NCCCC(N)(C(=O)O)C(F)F` (stereo not shown) [DFMO, difluoromethylornithine] here?
**A.** The value was “sensitive”.

**Q.** What about the “infectivity of MHV after direct incubation” value (from here on “infectivity of MHV”) [4] of the same compound?
**A.** The value was “titers were unchanged”.

**Q.** What about the “MHV genome levels in supernatant (qPCR)” value [2] of the same compound?
**A.** The value was “reduced genome levels”.

**Q.** And the “MHV production after repeated versus single dosing” value [2]?
**A.** The value was “repeated dosing is as effective as a single drug treatment”.

**Q.** What about the “MHV titers over several rounds of replication” value [2] of the same compound?
**A.** The value was “reduced viral titers compared to no treatment group up to 72 h”.

**Q.** What about the “antiviral effect after drug removal” value [2] of the same compound?
**A.** The value was “completely reversed”.

**Q.** And the “specific infectivity (genomes per PFU)” value [2]?
**A.** The value was “increased the ratio of genomes to titer”.

**Q.** What about the IC50 [2] of the same compound?
**A.** The IC50 was 380 µM.

**Q.** And the “toxicity” value [5]?
**A.** The value was “not toxic to these cells”.

**Q.** And the “cellular attachment of SARS-CoV-2 pseudoparticles” value [6]?
**A.** The value was “reduction in cellular attachment of SARS-CoV-2 pseudoparticles in a dose-dependent manner”.

**Q.** And the “reduction of SARS-CoV-2 genomes” value [7]?
**A.** Its value is “greater than 50 fold”.

**Q.** What about the “attachment and plaque formation” value [8] of the same compound?
**A.** The value was “significantly inhibited”.

**Q.** And the “bound viral genomes (qRT-PCR)” value [8]?
**A.** The value was “significantly reduced”.

**Q.** And the “polyamine levels by TLC” value ([9]; BHK-R cells)?
**A.** Its value is “depleted polyamines”.

**Q.** What about the “polyamine levels by TLC” value ([9]; HeLa-R cells, DENSpm at 10 μM) of the same compound?
**A.** Its value is “reduced polyamines”.

**Q.** What about the “polyamine levels by TLC” value ([9]; Vero-E6 cells, 750 μM to 5 mM DFMO) of the same compound?
**A.** Its value is “successfully depleted polyamines”.

**Q.** And the plaque size ([10]; BHK-R cells, DFMO in overlay media at time of infection)?
**A.** Its plaque size is “no changes in plaque size”.

**Q.** What about the plaque area ([10]; HeLa-R cells, DFMO at time of infection) of the same compound?
**A.** Its plaque area is “small, though statistically insignificant change”.

**Q.** And the IC50 [11]?
**A.** Its IC50 is ~7 µM and 7 µM.

**Q.** And the HCoV-NL63 attachment [12]?
**A.** Its HCoV-NL63 attachment is “attachment was sensitive to DFMO treatment”.

**Q.** With `NCCCCCCCN=C(N)N` [GC7] as the compound, how does the “cytotoxicity” value [1] read?
**A.** Its value is “cytotoxicity was minimal”.

**Q.** What about the MHV replication [2] of the same compound?
**A.** The MHV replication was “significantly reduced MHV replication in a dose-dependent manner”.

**Q.** What about the IC50 [2] of the same compound?
**A.** The IC50 was 7.4 µM.

**Q.** For `NCCCCN` [putrescine], which “infectivity of MHV” value [4] is on record?
**A.** The value was “titers were unchanged”.

**Q.** And the “effect of exogenous polyamine on MHV titers” value (from here on “effect of exogenous polyamine”) [2]?
**A.** Its value is “modestly reduced viral titers”.

**Q.** What about the “rescue of MHV replication in DFMO-treated cells” value (from here on “rescue of MHV replication”) [2] of the same compound?
**A.** Its value is “rescued virus replication to untreated levels”.

**Q.** With `NCCCCNCCCN` [spermidine] as the compound, how does the “infectivity of MHV” value [4] read?
**A.** The value was “titers were unchanged”.

**Q.** What about the “effect of exogenous polyamine” value [2] of the same compound?
**A.** Its value is “modestly reduced viral titers; also recorded: does not inhibit or restrict virus replication”.

**Q.** And the “rescue of MHV replication” value [2]?
**A.** Its value is “rescued virus replication to untreated levels”.

**Q.** With `NCCCNCCCCNCCCN` [spermine] as the compound, how does the “cytotoxicity” value [1] read?
**A.** The value was “significant cytotoxicity”.

**Q.** What about the “infectivity of MHV” value [4] of the same compound?
**A.** The value was “titers were unchanged”.

**Q.** What about the “effect of exogenous polyamine” value [2] of the same compound?
**A.** Its value is “modestly reduced viral titers; also recorded: reduces virus replication”.

**Q.** And the “rescue of MHV replication” value [2]?
**A.** Its value is “rescued virus replication to untreated levels”.
